Calls of active or inactive are those of the source. No cut-off for these calls is given here.
Assays:
NB-4 [1] = assay: Cytotoxicity against human NB4 cells after 24 hrs by MTT assay; type: functional, cell-based; conditions: NB-4, 24 h
HL-60 [2] = assay: Cytotoxicity against human HL60 cells after 24 hrs by MTT assay; type: functional, cell-based; conditions: HL-60, 24 h
SGC-7901 = assay: Cytotoxicity against human SGC7901 cells after 24 hrs by MTT assay; type: functional, cell-based; conditions: SGC-7901, 24 h
MCF7 = assay: Cytotoxicity against human MCF7 cells after 24 hrs by MTT assay; type: functional, cell-based; conditions: MCF7, 24 h
NB-4 [3] = assay: Cytotoxicity against human NB4 cells after 48 hrs by MTT assay; type: functional, cell-based; conditions: NB-4, 48 h
HL-60 [4] = assay: Cytotoxicity against human HL60 cells after 48 hrs by MTT assay; type: functional, cell-based; conditions: HL-60, 48 h
HeLa = assay: Cytotoxicity against human HeLa cells after 48 hrs by MTT assay; type: functional, cell-based
HEK293 = assay: Cytotoxicity against HEK293 cells after 48 hrs by MTT assay; type: cell-based; conditions: Homo sapiens, HEK293, 48 h
NB-4 [5] = assay: Induction of mitochondrial membrane potential loss in human NB4 cells at 0.6 uM after 3 hrs by JC1 staining based flow cytometry (reference value: 27.7%); type: functional
NB-4 [6] = assay: Induction of mitochondrial membrane potential loss in human NB4 cells at 0.6 uM after 6 hrs by JC1 staining based flow cytometry (reference value: 27.7%); type: functional
NB-4 [7] = assay: Cytotoxicity against human NB4 cells assessed as reduction in cell viability up to 2.4 uM up to 8 hrs by MTT assay; type: functional, cell-based
NB-4 [8] = assay: Cytotoxicity against human NB4 cells assessed as reduction in cell viability at 1 to 1.2 uM after 24 hrs in presence of DTT by trypan blue assay; type: functional, cell-based
NB-4 [9] = assay: Cytotoxicity against human NB4 cells assessed as reduction in cell viability at 1 to 1.2 uM after 24 hrs in presence of DMP by trypan blue assay; type: functional, cell-based
Rattus norvegicus [10] = species on record: Rattus norvegicus; assay: Induction of mitochondrial membrane potential loss in isolated Wistar rat mitochondria assessed as activity recovery phase rate constant at 50 uM using pyruvate as substrate up to 3 hrs by microcalorimetry; type: functional
Rattus norvegicus [11] = species on record: Rattus norvegicus; assay: Induction of mitochondrial membrane potential loss in isolated Wistar rat mitochondria assessed as activity recovery phase rate constant at 25 uM using pyruvate as substrate up to 3 hrs by microcalorimetry (reference value: 5.15 to 7.33 10^-3/min); type: functional
Rattus norvegicus [12] = species on record: Rattus norvegicus; assay: Induction of mitochondrial membrane potential loss in isolated Wistar rat mitochondria assessed as stationary increase phase rate constant at 100 uM using pyruvate as substrate up to 3 hrs by microcalorimetry; type: functional
Rattus norvegicus [13] = species on record: Rattus norvegicus; assay: Induction of mitochondrial membrane potential loss in isolated Wistar rat mitochondria assessed as decline phase rate constant at 100 uM using pyruvate as substrate up to 3 hrs by microcalorimetry; type: functional
Rattus norvegicus [14] = species on record: Rattus norvegicus; assay: Induction of mitochondrial membrane potential loss in isolated Wistar rat mitochondria assessed as maximum power output at 50 uM using pyruvate as substrate up to 3 hrs by microcalorimetry; type: functional
Rattus norvegicus [15] = species on record: Rattus norvegicus; assay: Induction of mitochondrial membrane potential loss in isolated Wistar rat mitochondria assessed as maximum power output at 100 uM using pyruvate as substrate up to 3 hrs by microcalorimetry; type: functional
Rattus norvegicus [16] = species on record: Rattus norvegicus; assay: Induction of mitochondrial membrane potential loss in isolated Wistar rat mitochondria assessed as total heat output at 50 uM using pyruvate as substrate up to 3 hrs by microcalorimetry; type: functional
Rattus norvegicus [17] = species on record: Rattus norvegicus; assay: Induction of mitochondrial membrane potential loss in isolated Wistar rat mitochondria assessed as total heat output at 100 uM using pyruvate as substrate up to 3 hrs by microcalorimetry; type: functional
Rattus norvegicus [18] = species on record: Rattus norvegicus; assay: Induction of mitochondrial membrane potential loss in isolated Wistar rat mitochondria assessed as total heat output at 25 uM using pyruvate as substrate up to 3 hrs by microcalorimetry (reference value: 10.32 to 10.36 J); type: functional
Rattus norvegicus [19] = species on record: Rattus norvegicus; assay: Inhibition of mitochondrial respiration in isolated Wistar rat mitochondria assessed as decrease in succinate/ADP-stimulated respiratory control ratio up to 16 uM by Clark oxygen electrode method; type: functional
Rattus norvegicus [20] = species on record: Rattus norvegicus; assay: Inhibition of ETC1 in isolated Wistar rat mitochondria assessed as reduction in NADH oxidation at 6 to 24 uM preincubated for 3 mins and measured after 5 mins by DB reagent based assay
Rattus norvegicus [21] = species on record: Rattus norvegicus; assay: Inhibition of ETC2 in isolated Wistar rat mitochondria assessed as decrease in DCPIP/DB reagent reduction at 5 to 50 uM incubated for 3 to 5 mins and measured for up to 3 mins
Rattus norvegicus [22] = species on record: Rattus norvegicus; assay: Inhibition of ETC3 in isolated Wistar rat mitochondria assessed as decrease in oxidized cyochrome-c reduction at 50 uM incubated for 3 to 5 mins and measured for up to 3 mins
Rattus norvegicus [23] = species on record: Rattus norvegicus; assay: Inhibition of ETC4 in isolated Wistar rat mitochondria assessed as decrease in cyochrome-c oxidation at 5 to 15 uM incubated for 3 to 5 mins and measured for up to 3 mins
NB-4 [24] = assay: Reduction in cell viability in human NB4 cells up to 2.4 uM up to 24 hrs by MTT assay; type: functional, cell-based
Rattus norvegicus [25] = species on record: Rattus norvegicus; assay: Induction of mitochondrial swelling in isolated Wistar rat mitochondria at 30 uM in presence of cyclosporin-A; type: functional
Rattus norvegicus [26] = species on record: Rattus norvegicus; assay: Induction of mitochondrial membrane permeability in isolated Wistar rat mitochondria at 50 uM for 30 mins by TEM analysis; type: functional
NB-4 [27] = assay: Induction of apoptosis in human NB4 cells assessed as early apoptotic cells after 24 hrs by Annexin V-FITC/propidium iodide staining based flow cytometry (reference value: 5%); type: functional
NB-4 [28] = assay: Induction of apoptosis in human NB4 cells assessed as decrease in cell size at 0.6 to 1.2 uM after 24 hrs by Hoechst 33342/propidium iodide staining based confocal microscopic method; type: functional
NB-4 [29] = assay: Induction of apoptosis in human NB4 cells assessed as live cells after 24 hrs by Annexin V-FITC/propidium iodide staining based flow cytometry (reference value: 92%); type: functional
NB-4 [30] = assay: Induction of apoptosis in human NB4 cells assessed as late apoptotic cells after 24 hrs by Annexin V-FITC/propidium iodide staining based flow cytometry (reference value: 2.9%); type: functional
NB-4 [31] = assay: Induction of apoptosis in human NB4 cells assessed as early apoptotic cells after 24 hrs in presence of Z-VAD-fmk by Annexin V-FITC/propidium iodide staining based flow cytometry (reference value: 5%); type: functional
NB-4 [32] = assay: Induction of apoptosis in human NB4 cells assessed as late apoptotic cells after 24 hrs in presence of Z-VAD-fmk by Annexin V-FITC/propidium iodide staining based flow cytometry (reference value: 2.9%); type: functional
NB-4 [33] = assay: Induction of apoptosis in human NB4 cells assessed as necrotic cells after 24 hrs in presence of Z-VAD-fmk by Annexin V-FITC/propidium iodide staining based flow cytometry (reference value: 0.1%); type: functional
NB-4 [34] = assay: Induction of apoptosis in human NB4 cells assessed as live cells after 24 hrs in presence of Nec-1 by Annexin V-FITC/propidium iodide staining based flow cytometry (reference value: 92%); type: functional
NB-4 [35] = assay: Induction of apoptosis in human NB4 cells assessed as early apoptotic cells after 24 hrs in presence of Nec-1 by Annexin V-FITC/propidium iodide staining based flow cytometry (reference value: 5%); type: functional
NB-4 [36] = assay: Induction of apoptosis in human NB4 cells assessed as necrotic cells after 24 hrs in presence of Nec-1 by Annexin V-FITC/propidium iodide staining based flow cytometry (reference value: 0.1%); type: functional

SMILES: O=C(CC[P+](c1ccccc1)(c1ccccc1)c1ccccc1)Nc1ccc([As]2SCCCS2)cc1.[Cl-]
- IC50 (NB-4 [1]): 0.65 µM
- IC50 (HL-60 [2]): 3.58 µM
- IC50 (SGC-7901): 4.63 µM
- IC50 (MCF7): 4.44 µM
- IC50 (NB-4 [3]): 0.51 µM
- IC50 (HL-60 [4]): 3.23 µM
- IC50 (HeLa): 3.91 µM
- IC50 (HEK293): 2.08 µM
- Activity (NB-4 [5]): 73.9%
- Activity (NB-4 [6]): 81.5%
- Activity (NB-4 [7]): inactive
- Activity (NB-4 [8]): inactive
- Activity (NB-4 [9]): inactive
- K (Rattus norvegicus [10]): 4.82 ×10⁻³ /min
- K (Rattus norvegicus [11]): 3.82 ×10⁻³ /min
- K (Rattus norvegicus [12]): 0.41 ×10⁻³ /min
- K (Rattus norvegicus [13]): -9.13 ×10⁻³ /min
- Activity (Rattus norvegicus [14]): 107 W
- Activity (Rattus norvegicus [15]): 112 W
- Activity (Rattus norvegicus [16]): 10.2 J
- Activity (Rattus norvegicus [17]): 11.2 J
- Activity (Rattus norvegicus [18]): 10.8 J
- inhibition (Rattus norvegicus [19]): Active
- inhibition (Rattus norvegicus [20]): Active
- inhibition (Rattus norvegicus [21]): inactive
- inhibition (Rattus norvegicus [22]): Active
- inhibition (Rattus norvegicus [23]): Active
- Activity (NB-4 [24]): Active
- Activity (Rattus norvegicus [25]): inactive
- Activity (Rattus norvegicus [26]): Active
- Activity (NB-4 [27]): 13.1%
- Activity (NB-4 [28]): Active
- Activity (NB-4 [29]): 69.3%
- Activity (NB-4 [30]): 16.2%
- Activity (NB-4 [31]): 12.7%
- Activity (NB-4 [32]): 5.2%
- Activity (NB-4 [33]): 0.2%
- Activity (NB-4 [34]): 71.2%
- Activity (NB-4 [35]): 11.6%
- Activity (NB-4 [36]): 1%
